≈ marks a conversion by molar mass, not a printed value.
Legend:
Klebsiella pneumoniae [1] = assay: Antibacterial activity against porin, OmpA positive Klebsiella pneumoniae ATCC 138821 by disk agar diffusion method; assay type: functional
Klebsiella pneumoniae [2] = assay: Antibacterial activity against porin, OmpA positive Klebsiella pneumoniae KPBj1 expressing efflux system by disk agar diffusion method; assay type: functional
Klebsiella pneumoniae [3] = assay: Antibacterial activity against porin, OmpA positive Klebsiella pneumoniae KPBj1 revertant by disk agar diffusion method; assay type: functional
Klebsiella pneumoniae [4] = assay: Antibacterial activity against porin deficient OmpA positive Klebsiella pneumoniae KPBj1 expressing efflux system by disk agar diffusion method; assay type: functional
Klebsiella pneumoniae [5] = assay: Antibacterial activity against porin deficient OmpA positive Klebsiella pneumoniae KPBj1 revertant by disk agar diffusion method; assay type: functional
Klebsiella pneumoniae [6] = assay: Antibacterial activity against porin, OmpA positive extended-spectrum beta-lactamase producing Klebsiella pneumoniae KPBj1 by disk agar diffusion method; assay type: functional
Klebsiella pneumoniae [7] = assay: Antibacterial activity against porin, OmpA positive extended-spectrum beta-lactamase producing Klebsiella pneumoniae KPBj1 revertant by disk agar diffusion method; assay type: functional
Klebsiella pneumoniae [8] = assay: Antibacterial activity against porin deficient OmpA positive extended-spectrum beta-lactamase producing Klebsiella pneumoniae KPBj1 revertant by disk agar diffusion method; assay type: functional
Klebsiella pneumoniae [9] = assay: Antibacterial activity against porin, OmpA positive Klebsiella pneumoniae KPBj3 expressing efflux system by disk agar diffusion method; assay type: functional
Klebsiella pneumoniae [10] = assay: Antibacterial activity against porin, OmpA positive Klebsiella pneumoniae KPBj3 revertant by disk agar diffusion method; assay type: functional
Klebsiella pneumoniae [11] = assay: Antibacterial activity against porin deficient OmpA positive Klebsiella pneumoniae KPBj3 expressing efflux system by disk agar diffusion method; assay type: functional
Klebsiella pneumoniae [12] = assay: Antibacterial activity against porin deficient OmpA positive Klebsiella pneumoniae KPBj3 revertant by disk agar diffusion method; assay type: functional
Klebsiella pneumoniae [13] = assay: Antibacterial activity against porin, OmpA positive Klebsiella pneumoniae KPBj5 expressing efflux system by disk agar diffusion method; assay type: functional
Klebsiella pneumoniae [14] = assay: Antibacterial activity against porin, OmpA positive Klebsiella pneumoniae KPBj5 revertant by disk agar diffusion method; assay type: functional
Klebsiella pneumoniae [15] = assay: Antibacterial activity against porin deficient OmpA positive Klebsiella pneumoniae KPBj5 expressing efflux system by disk agar diffusion method; assay type: functional
Klebsiella pneumoniae [16] = assay: Antibacterial activity against porin deficient OmpA positive Klebsiella pneumoniae KPBj5 revertant by disk agar diffusion method; assay type: functional
Klebsiella pneumoniae [17] = assay: microbe, parasite or virus in culture; details: KPBj1
Description: Antibacterial activity against porin deficient OmpA positive extended-spectrum beta-lactamase producing Klebsiella pneumoniae KPBj1 expressing efflux system by disk agar diffusion method

| Structure (SMILES) | MIC (Klebsiella pneumoniae [1]) | MIC (Klebsiella pneumoniae [2]) | MIC (Klebsiella pneumoniae [3]) | MIC (Klebsiella pneumoniae [4]) | MIC (Klebsiella pneumoniae [5]) | MIC (Klebsiella pneumoniae [6]) | MIC (Klebsiella pneumoniae [7]) | MIC (Klebsiella pneumoniae [8]) | MIC (Klebsiella pneumoniae [9]) | MIC (Klebsiella pneumoniae [10]) | MIC (Klebsiella pneumoniae [11]) | MIC (Klebsiella pneumoniae [12]) | MIC (Klebsiella pneumoniae [13]) | MIC (Klebsiella pneumoniae [14]) | MIC (Klebsiella pneumoniae [15]) | MIC (Klebsiella pneumoniae [16]) | MIC (Klebsiella pneumoniae [17]) |
| --- | --- | --- | --- | --- | --- | --- | --- | --- | --- | --- | --- | --- | --- | --- | --- | --- | --- |
| C[C@@H](O)[C@H]1C(=O)N2C(C(=O)O)=C(S[C@@H]3CN[C@H](C(=O)Nc4cccc(C(=O)O)c4)C3)[C@H](C)[C@H]12 | 0.007 µg/mL (≈ 0.0147 µM) | 0.007 µg/mL (≈ 0.0147 µM) | 0.007 µg/mL (≈ 0.0147 µM) | 0.5 µg/mL (≈ 1.05 µM) | 0.5 µg/mL (≈ 1.05 µM) | 0.125 µg/mL (≈ 0.263 µM) | 0.03 µg/mL (≈ 0.0631 µM) | 2 µg/mL (≈ 4.21 µM) | 0.007 µg/mL (≈ 0.0147 µM) | 0.007 µg/mL (≈ 0.0147 µM) | 0.25 µg/mL (≈ 0.526 µM) | 0.25 µg/mL (≈ 0.526 µM) | 0.015 µg/mL (≈ 0.0315 µM) | 0.007 µg/mL (≈ 0.0147 µM) | 0.25 µg/mL (≈ 0.526 µM) | 0.25 µg/mL (≈ 0.526 µM) | 4 µg/mL (≈ 8.41 µM) |
| CC(C)(O/N=C(\C(=O)N[C@@H]1C(=O)N2C(C(=O)[O-])=C(C[n+]3ccccc3)CS[C@H]12)c1csc(N)n1)C(=O)O [CEFTAZIDIME] | 0.125 µg/mL (≈ 0.229 µM) | 0.25 µg/mL (≈ 0.457 µM) | 0.125 µg/mL (≈ 0.229 µM) | 0.125 µg/mL (≈ 0.229 µM) | 0.125 µg/mL (≈ 0.229 µM) | 32 µg/mL (≈ 58.5 µM) | 16 µg/mL (≈ 29.3 µM) | 32 µg/mL (≈ 58.5 µM) | 0.25 µg/mL (≈ 0.457 µM) | 0.125 µg/mL (≈ 0.229 µM) | 0.25 µg/mL (≈ 0.457 µM) | 0.25 µg/mL (≈ 0.457 µM) | 0.25 µg/mL (≈ 0.457 µM) | 0.125 µg/mL (≈ 0.229 µM) | 0.25 µg/mL (≈ 0.457 µM) | 0.125 µg/mL (≈ 0.229 µM) | 32 µg/mL (≈ 58.5 µM) |
| O=C(N[C@H](CO)[C@H](O)c1ccc([N+](=O)[O-])cc1)C(Cl)Cl [CHLORAMPHENICOL] | 2 µg/mL (≈ 6.19 µM) | 128 µg/mL (≈ 396 µM) | 2 µg/mL (≈ 6.19 µM) | 128 µg/mL (≈ 396 µM) | 4 µg/mL (≈ 12.4 µM) | 128 µg/mL (≈ 396 µM) | 2 µg/mL (≈ 6.19 µM) | 4 µg/mL (≈ 12.4 µM) | 128 µg/mL (≈ 396 µM) | 4 µg/mL (≈ 12.4 µM) | 128 µg/mL (≈ 396 µM) | 4 µg/mL (≈ 12.4 µM) | 8 µg/mL (≈ 24.8 µM) | 2 µg/mL (≈ 6.19 µM) | 8 µg/mL (≈ 24.8 µM) | 2 µg/mL (≈ 6.19 µM) | 128 µg/mL (≈ 396 µM) |
| CCn1cc(C(=O)O)c(=O)c2ccc(C)nc21 [NALIDIXIC ACID] | 4 µg/mL (≈ 17.2 µM) | 32 µg/mL (≈ 138 µM) | 2 µg/mL (≈ 8.61 µM) | 32 µg/mL (≈ 138 µM) | 2 µg/mL (≈ 8.61 µM) | 32 µg/mL (≈ 138 µM) | 4 µg/mL (≈ 17.2 µM) | 4 µg/mL (≈ 17.2 µM) | 32 µg/mL (≈ 138 µM) | 2 µg/mL (≈ 8.61 µM) | 32 µg/mL (≈ 138 µM) | 2 µg/mL (≈ 8.61 µM) | 8 µg/mL (≈ 34.4 µM) | 2 µg/mL (≈ 8.61 µM) | 8 µg/mL (≈ 34.4 µM) | 2 µg/mL (≈ 8.61 µM) | 32 µg/mL (≈ 138 µM) |
| CO[C@@]1(NC(=O)Cc2cccs2)C(=O)N2C(C(=O)O)=C(COC(N)=O)CS[C@@H]21 [CEFOXITIN] | 2 µg/mL (≈ 4.68 µM) | 8 µg/mL (≈ 18.7 µM) | 2 µg/mL (≈ 4.68 µM) | 32 µg/mL (≈ 74.9 µM) | 32 µg/mL (≈ 74.9 µM) | 8 µg/mL (≈ 18.7 µM) | 2 µg/mL (≈ 4.68 µM) | 32 µg/mL (≈ 74.9 µM) | 4 µg/mL (≈ 9.36 µM) | 2 µg/mL (≈ 4.68 µM) | 32 µg/mL (≈ 74.9 µM) | 32 µg/mL (≈ 74.9 µM) | 8 µg/mL (≈ 18.7 µM) | 2 µg/mL (≈ 4.68 µM) | 32 µg/mL (≈ 74.9 µM) | 16 µg/mL (≈ 37.4 µM) | 32 µg/mL (≈ 74.9 µM) |
| C[C@H]1COc2c(N3CCN(C)CC3)c(F)cc3c(=O)c(C(=O)O)cn1c23.C[C@H]1COc2c(N3CCN(C)CC3)c(F)cc3c(=O)c(C(=O)O)cn1c23.O [LEVOFLOXACIN] | 0.03 µg/mL |  | 0.03 µg/mL |  | 0.06 µg/mL |  | 0.03 µg/mL | 0.06 µg/mL |  | 0.03 µg/mL |  | 0.015 µg/mL |  | 0.06 µg/mL |  | 0.06 µg/mL |  |
| CO/N=C(\C(=O)N[C@@H]1C(=O)N2C(C(=O)O)=C(COC(C)=O)CS[C@H]12)c1csc(N)n1 [CEFOTAXIME] | 0.06 µg/mL (≈ 0.132 µM) | 0.125 µg/mL (≈ 0.274 µM) | 0.06 µg/mL (≈ 0.132 µM) | 0.25 µg/mL (≈ 0.549 µM) | 0.25 µg/mL (≈ 0.549 µM) | 128 µg/mL (≈ 281 µM) | 128 µg/mL (≈ 281 µM) | 256 µg/mL (≈ 562 µM) | 0.06 µg/mL (≈ 0.132 µM) | 0.06 µg/mL (≈ 0.132 µM) | 0.25 µg/mL (≈ 0.549 µM) | 0.25 µg/mL (≈ 0.549 µM) | 0.125 µg/mL (≈ 0.274 µM) | 0.06 µg/mL (≈ 0.132 µM) | 0.25 µg/mL (≈ 0.549 µM) | 0.125 µg/mL (≈ 0.274 µM) | 256 µg/mL (≈ 562 µM) |
